Reference: patent EP2928504B1, “PROTEIN-POLYMER-DRUG CONJUGATES” (Mersana Therapeutics, Inc., priority 2012, dated 2014)
pIC50: −log10 of the molar value. Read-outs that look alike come from different tables or passages of the source.

How the values were obtained:
Experiment in all cases: Cell viability assay (Cell Titer-Glo)
Type in all cases: cell-based
SKBR3 = details: Homo sapiens, SK-BR-3, 72 h
Description: (§1) PBRM-drug polymer conjugates were evaluated for their tumor viability using Cell Titer-Glo (Promega Corp). Cells were plated in black walled 96-well plate and allowed to adhere overnight at 37°C in a humidified atmosphere of 5% CO2. HER2 expressing cells SKBR3, BT474, NCI-N87 and cells expressing low levels of HER2-MCF7 were plated at a density of 5,000 cells per well. The next day the medium was replaced with 50 µL fresh medium and 50 µL of 2x stocks of PBRM-drug polymer conjugate, drug polymer conjugate or drug were added to appropriate wells, mixed and incubated for 72 h. Cell Titer-Glo reagent was added to the wells at room temperature and the luminescent signal was measured after 10 min using a SpectraMax M5 plate reader (Molecular Devices). Dose response curves were generated using SoftMax Pro software. IC50 values were determined from four-parameter curve fitting.

BT474 = details: Homo sapiens, BT-474, 72 h
Description: as §1

NCI-N87 = tested on: NCI-N87
Description: as §1

MCF7 = tested on: MCF7
Description: as §1

HCT15 = tested on: HCT15
[1] = Homo sapiens, HCT-15, 72 h, Table VIII, drug compounds, read-out: HCT15 IC50
[2] = Table VIII, drug compounds, read-out: SKBR3 IC50
[3] = Table VIII, drug compounds, read-out: BT474 IC50
[4] = Homo sapiens, MCF7, 72 h, Table VIII, drug compounds, read-out: MCF7 IC50
[5] = Homo sapiens, NCI-N87, 72 h, Table VIII, drug compounds, read-out: N87 IC50

| Structure (SMILES) | pIC50 (HCT15; [1]) | pIC50 (SKBR3; [2]) | pIC50 (BT474; [3]) | pIC50 (MCF7; [4]) | pIC50 (NCI-N87; [5]) | other results |
| --- | --- | --- | --- | --- | --- | --- |
| COc1cc2cc(C(=O)N3C[C@@H](CCl)c4c3cc(OC(=O)N3CCN(CCN)CC3)c3ccccc43)[nH]c2c(OC)c1OC | – | – | – | – | – | pIC50 (SKBR3; read-out: SKBR3 IC50, Table VIII, drug compounds): 7.00; pIC50 (BT474; read-out: BT474 IC50, Table VIII, drug compounds): 7.00; pIC50 (NCI-N87; Homo sapiens, NCI-N87, 72 h, read-out: N87 IC50, Table VIII, drug compounds): 7.11; pIC50 (MCF7; Homo sapiens, MCF7, 72 h, read-out: MCF7 IC50, Table VIII, drug compounds): 7.00; pIC50 (HCT15; Homo sapiens, HCT-15, 72 h, read-out: HCT15 IC50, Table VIII, drug compounds): 7.17 |
| CCCO[C@H](C[C@H](C(C)C)N(CCC)C(=O)[C@@H](NC(=O)[C@H]1CCCCN1C)[C@@H](C)CC)c1nc(C(=O)N[C@@H](Cc2ccc(O)cc2)C[C@H](C)C(=O)OCCCN)cs1 | 7.64 | – | – | – | – | – |
| COc1cc2cc(C(=O)N3C[C@@H](CCl)c4c3cc(O)c3ccccc43)[nH]c2c(OC)c1OC [drawing 780 (R91 = H)] | 8.76 | 8.98 | 8.43 | 9.00 | – | – |
| COc1cc2cc(C(=O)N3C[C@@H](CCl)c4c3cc(OC(=O)[C@@H]3CCCN3)c3ccccc43)[nH]c2c(OC)c1OC | 8.82 | 8.87 | 8.34 | – | 9.03 | – |
| CCC(C)C(C(CC(=O)N1CCCC1C(OC)C(C)C(=O)NC(Cc1ccccc1)C(=O)NCCN)OC)N(C)C(=O)C(NC(=O)C(C(C)C)N(C)C)C(C)C (stereo not shown) | – | – | – | – | 9.05 | – |
| CCCO[C@H](C[C@H](C(C)C)N(CCC)C(=O)[C@@H](NC(=O)[C@H]1CCCCN1C)[C@@H](C)CC)c1nc(C(=O)N[C@@H](Cc2ccc(O)cc2)C[C@H](C)C(=O)OC)cs1 [drawing 786 (R43 = H, R78 = -OCH3)] | – | 9.15 | – | 8.52 | – | – |
| CCC(C)C(C(CC(=O)N1CCCC1C(OC)C(C)C(=O)NC(Cc1ccccc1)C(=O)NCCCOC(=O)C1CCCN1)OC)N(C)C(=O)C(NC(=O)C(C(C)C)N(C)C)C(C)C (stereo not shown) | 7.07 | 9.06 | 8.46 | 8.48 | 8.82 | – |
| CCC(C)C(C(CC(=O)N1CCCC1C(OC)C(C)C(=O)NC(Cc1ccccc1)C(=O)NCC(C)O)OC)N(C)C(=O)C(NC(=O)C(C(C)C)N(C)C)C(C)C (stereo not shown) [drawing 772] | – | – | – | – | – | pIC50 (NCI-N87; Table VIII, drug compounds, 72 h, read-out: N87 IC50): 9.11; pIC50 (MCF7; Table VIII, drug compounds, 72 h, read-out: MCF7 IC50): 8.69; pIC50 (HCT15; Table VIII, drug compounds, 72 h, read-out: HCT15 IC50): 7.49 |
| CCC(C)C(C(CC(=O)N1CCCC1C(OC)C(C)C(=O)NC(Cc1ccccc1)C(=O)NCC(C)O)OC)N(C)C(=O)C(NC(=O)C(C(C)C)N(C)C)C(C)C (stereo not shown) [drawing 771] | 7.50 | 9.36 | 8.90 | 8.73 | 9.16 | – |
| COc1cc2cc(C(=O)N3C[C@@H](CCl)c4c3cc(OC(=O)CCN)c3ccccc43)[nH]c2c(OC)c1OC | 8.60 | 8.68 | 8.18 | 8.85 | – | – |
| CCC(C)C(C(CC(=O)N1CCCC1C(OC)C(C)C(=O)NC(Cc1ccccc1)C(=O)OCCN)OC)N(C)C(=O)C(NC(=O)C(C(C)C)N(C)C)C(C)C (stereo not shown) | – | – | – | – | 9.05 | – |
| COc1cc2cc(C(=O)N3C[C@@H](CCl)c4c3cc(OC(=O)[C@@H](N)C(C)C)c3ccccc43)[nH]c2c(OC)c1OC | – | 9.02 | 8.46 | – | 9.02 | – |
| CCC(C)C(C(CC(=O)N1CCCC1C(OC)C(C)C(=O)NC(Cc1ccccc1)C(=O)NO)OC)N(C)C(=O)C(NC(=O)C(C(C)C)N(C)C)C(C)C (stereo not shown) [drawing 765 (R40 = -OH)] | – | 7.92 | 7.69 | 7.41 | – | – |
| COc1cc2cc(C(=O)N3C[C@@H](CCl)c4c3cc(OC(=O)N(C)CCO)c3ccccc43)[nH]c2c(OC)c1OC | 7.00 | 7.67 | 7.17 | 7.00 | 7.52 | – |
| CCC(C)C(C(CC(=O)N1CCCC1C(OC)C(C)C(=O)NC(Cc1ccccc1)C(N)=O)OC)N(C)C(=O)C(NC(=O)C(C(C)C)N(C)C)C(C)C (stereo not shown) [drawing 765 (R40 = H)] | – | 9.49 | – | 8.75 | – | – |
| CCCO[C@H](C[C@H](C(C)C)N(CCC)C(=O)[C@@H](NC(=O)[C@H]1CCCCN1C)[C@@H](C)CC)c1nc(C(=O)N[C@@H](Cc2ccc(OC(=O)NCCCCN)cc2)C[C@H](C)C(=O)O)cs1 | 8.34 | 10.10 | 10.00 | 9.17 | 9.62 | – |
| CCC(C)C(C(CC(=O)N1CCCC1C(OC)C(C)C(=O)NC(Cc1ccccc1)C(=O)OC)OC)N(C)C(=O)C(NC(=O)C(C(C)C)N(C)C)C(C)C (stereo not shown) [drawing 761 (R42 = -CH3)] | 9.39 | – | 10.05 | 9.57 | 10.52 | – |
| CCC(C)C(C(CC(=O)N1CCCC1C(OC)C(C)C(=O)NC(C)C(O)c1ccccc1)OC)N(C)C(=O)C(NC(=O)C(C(C)C)N(C)C)C(C)C (stereo not shown) [drawing 777 (R90 = -H)] | 8.00 | – | – | – | 9.62 | – |
| CCCO[C@H](C[C@H](C(C)C)N(CCC)C(=O)[C@@H](NC(=O)[C@H]1CCCCN1C)[C@@H](C)CC)c1nc(C(=O)N[C@@H](Cc2ccc(O)cc2)C[C@H](C)C(=O)O)cs1 [drawing 786 (R43 = H, R78 = -OH)] | 9.54 | 10.22 | 10.40 | – | 10.00 | – |
| CCCO[C@H](C[C@H](C(C)C)N(CCC)C(=O)[C@@H](NC(=O)[C@H]1CCCCN1C)[C@@H](C)CC)c1nc(C(=O)N[C@@H](Cc2ccc(O)cc2)C[C@H](C)C(N)=O)cs1 [drawing 786 (R43 = H, R78 = -NH2)] | – | 8.80 | 8.87 | 8.48 | 8.49 | – |
